# How the values were obtained:
# Assay in all cases: relative viability (nuclei count vs DMSO), 5 days (fraction); higher = more cells survive
# RU-SKI 43 + Navitoclax = compound: CC[C@@H](C)CNCC(=O)N1CCC2=C([C@@H]1COC3=CC=CC(=C3)C)C=CS2 [RU-SKI 43] + CC1(C)CCC(c2ccc(Cl)cc2)=C(CN2CCN(c3ccc(C(=O)NS(=O)(=O)c4ccc(N[C@H](CCN5CCOCC5)CSc5ccccc5)c(S(=O)(=O)C(F)(F)F)c4)cc3)CC2)C1 [Navitoclax] (partner 0.5 µM)
# Outline: (§1)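 Each reported value is a median over duplicate plates. It expresses relative viability: treated-well nuclei count divided by vehicle-well nuclei count. Lung cancer cell lines in 1536-well plates were dosed by pin tool a day after seeding, alone with one drug or with a fixed anchor-drug dose plus five library-drug doses (not always all listed) in √10 steps, and nuclei were counted after 5 days.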
# MK-8033 + Alpelisib = compound: Cn1cc(-c2cnc3ccc4ccc(CS(=O)(=O)NCc5ccccn5)cc4c(=O)c3c2)cn1 [MK-8033] + Cc1nc(NC(=O)N2CCC[C@H]2C(N)=O)sc1-c1ccnc(C(C)(C)C(F)(F)F)c1 [Alpelisib] (partner 2 µM)
# Outline: as §1
# MK-8033 + Tozasertib = compound: Cn1cc(-c2cnc3ccc4ccc(CS(=O)(=O)NCc5ccccn5)cc4c(=O)c3c2)cn1 [MK-8033] + Cc1cc(Nc2cc(N3CCN(C)CC3)nc(Sc3ccc(NC(=O)C4CC4)cc3)n2)n[nH]1 [Tozasertib] (partner 0.1 µM)
# Outline: as §1
# MK-8033 + Navitoclax = compound: Cn1cc(-c2cnc3ccc4ccc(CS(=O)(=O)NCc5ccccn5)cc4c(=O)c3c2)cn1 [MK-8033] + CC1(C)CCC(c2ccc(Cl)cc2)=C(CN2CCN(c3ccc(C(=O)NS(=O)(=O)c4ccc(N[C@H](CCN5CCOCC5)CSc5ccccc5)c(S(=O)(=O)C(F)(F)F)c4)cc3)CC2)C1 [Navitoclax] (partner 0.5 µM)
# Outline: as §1
Cell Line,relative viability (RU-SKI 43 + Navitoclax; first compound 0.1 µM),relative viability (RU-SKI 43 + Navitoclax; first compound 0.3162 µM),relative viability (RU-SKI 43 + Navitoclax; first compound 1 µM),relative viability (RU-SKI 43 + Navitoclax; first compound 3.162 µM),relative viability (RU-SKI 43 + Navitoclax; first compound 10 µM),relative viability (MK-8033 + Alpelisib; first compound 0.02 µM),relative viability (MK-8033 + Alpelisib; first compound 0.06325 µM),relative viability (MK-8033 + Alpelisib; first compound 0.2 µM),relative viability (MK-8033 + Alpelisib; first compound 0.6325 µM),relative viability (MK-8033 + Alpelisib; first compound 2 µM),relative viability (MK-8033 + Tozasertib; first compound 0.02 µM),relative viability (MK-8033 + Tozasertib; first compound 0.06325 µM),relative viability (MK-8033 + Tozasertib; first compound 0.2 µM),relative viability (MK-8033 + Tozasertib; first compound 0.6325 µM),relative viability (MK-8033 + Tozasertib; first compound 2 µM),relative viability (MK-8033 + Navitoclax; first compound 0.02 µM),relative viability (MK-8033 + Navitoclax; first compound 0.06325 µM),relative viability (MK-8033 + Navitoclax; first compound 0.2 µM),relative viability (MK-8033 + Navitoclax; first compound 0.6325 µM),relative viability (MK-8033 + Navitoclax; first compound 2 µM)
HCC-44,0.863,1.13,0.968,0.986,0.902,0.798,0.775,0.751,0.796,0.789,0.886,0.837,0.771,0.729,0.813,0.874,0.911,0.912,0.963,0.899
HCC-78,0.758,0.96,1.03,0.834,0.772,0.271,0.293,0.267,–,0.357,0.482,–,0.414,1.83,0.404,0.596,0.665,0.767,–,0.774
HCC-366,1.04,1.5,1.06,1.18,1.05,0.409,0.435,0.325,0.376,0.325,0.114,0.131,0.0893,0.102,0.0504,1.02,1.11,1.06,1.01,1.07
HCC-827,0.998,0.954,1.03,1.08,0.973,1.01,–,1.07,0.908,0.91,0.412,–,0.402,0.4,0.401,0.963,–,0.939,0.918,0.984
HOP-62,1.22,1.26,1.21,1.14,1.06,0.987,0.75,1.05,0.956,0.938,0.406,0.339,0.359,0.352,0.344,1.03,0.89,1.03,1.12,0.955
IA-LM,0.752,0.751,0.856,0.738,0.824,0.787,0.536,0.723,0.736,0.729,–,–,–,–,–,0.712,0.618,0.907,0.912,0.696
LC-2-ad,0.388,0.487,0.63,0.422,0.329,0.888,0.864,0.825,0.823,0.849,0.441,0.385,–,0.512,0.409,0.519,0.328,0.398,0.383,0.413
LCLC-97TM1,0.197,–,0.336,0.399,0.396,0.199,0.234,0.205,0.207,0.235,0.2,0.237,0.241,0.223,0.216,0.402,0.506,0.396,0.398,0.401
LCLC-103H,–,–,–,–,–,1.07,0.872,0.94,0.942,0.959,0.489,0.556,0.438,0.55,0.461,–,–,–,–,–
LK-2,0.962,0.883,0.93,1.07,0.914,1.22,1.04,1.02,1.17,1,0.174,–,0.179,0.182,0.198,0.907,0.853,0.807,0.924,0.772
LOU-NH91,0.679,0.746,0.741,0.714,0.683,0.727,–,0.69,0.702,0.699,0.653,0.406,0.644,0.644,0.678,0.686,–,0.674,0.675,0.695
NCI-H358,–,–,–,–,–,0.794,0.755,0.725,0.797,0.772,0.0969,0.0932,0.1,0.0977,0.106,–,–,–,–,–
NCI-H522,–,–,–,–,–,–,–,–,–,–,0.606,0.477,0.53,0.496,0.599,–,–,–,–,–
NCI-H650,–,–,–,–,–,1.08,1.1,1.01,1.16,1.17,0.701,0.598,0.706,0.827,0.679,–,–,–,–,–
NCI-H661,–,–,–,–,–,0.581,0.261,0.634,0.592,0.778,0.37,0.328,0.359,0.35,0.345,–,–,–,–,–
NCI-H1299,1.04,1.09,1.07,1.01,1.03,0.985,1.02,1.07,0.99,1.1,–,–,–,–,–,1.04,1.03,1.03,1.07,1.01
NCI-H1563,–,–,–,–,–,1.02,0.918,0.883,1.02,0.93,–,–,–,–,–,–,–,–,–,–
NCI-H1623,–,–,–,–,–,–,–,–,–,–,0.396,0.358,0.428,0.43,0.498,–,–,–,–,–
NCI-H1648,–,–,–,–,–,–,–,–,–,–,–,0.404,0.405,–,0.426,–,–,–,–,–
NCI-H1650,1.17,1.38,1.41,1.06,0.813,–,–,–,–,–,0.395,0.325,0.395,0.352,0.276,1.21,1.13,1.11,1.11,1.18
NCI-H1703,1.2,1.08,0.987,1.16,0.535,0.407,0.273,0.354,0.266,0.309,–,–,–,–,–,0.967,1.08,0.988,1.12,0.924
NCI-H1792,0.65,0.908,0.968,0.612,0.685,0.729,0.59,0.768,0.776,0.693,–,–,–,–,–,0.826,0.649,0.593,0.61,0.653
NCI-H2342,–,–,–,–,–,–,–,–,–,–,0.571,0.475,0.485,0.377,0.53,–,–,–,–,–
SW 900,–,–,–,–,–,–,–,–,–,–,0.583,0.645,0.51,0.615,0.341,–,–,–,–,–

# — the supplement of paper PMC10307832
